Results on two compounds are retold here after EP1495019B1, “GLUCOPYRANOSIDE, PROCESS FOR ISOLATION THEREOF, PHARMACEUTICAL COMPOSITION CONTAINING SAME AND USE THEREOF” (COUNCIL OF SCIENTIFIC AND INDUSTRIAL RESEARCH, priority 2002, dated 2003).

This experiment deals with Wistar rats. Description: hypoglycaemic activity in 18 hour fasted Wistar rats. Format: in vivo. How it is done: The compound was evaluated for hypoglycaemic activity in 18 hour fasted Wistar rats. […] The mean fall recorded was 24 mg/100 ml blood, from an initial mean of 91 to mean of 67 mg/100 ml blood.

Each structure is given as a SMILES string.

For the compound `CCCNC(=O)NS(=O)(=O)c1ccc(Cl)cc1` [chlorpropamide, reference compound], the mean fall (positive control, dose not given) was 18 mg/100 ml of blood.

As to `OC[C@H]1O[C@@H](c2c(O)ccc3cc(Cc4ccc(O)cc4)oc23)[C@H](O)[C@@H](O)[C@@H]1O` [formula 1, 6-hydroxy-2-p-hydroxybenzylbenzofuran-7-C-β-D-glucopyranoside], the hypoglycaemic effect result (dose of 15 mg/kg p.o.) is “hypoglycaemic effect was recorded in all the treated rats”. Moreover, the “mean (after treatment)” value (dose of 15 mg/kg p.o., from an initial mean of 91) came to 67 mg/100 ml blood. Besides, for the setting “dose of 15 mg/kg p.o., initial mean of 91 mg/100 ml blood”, the mean fall is 24 mg/100 ml blood.
